From patent US20230190743A1, “TREATMENT WITH ILEAL BILE ACID TRANSPORTER (IBAT) INHIBITORS FOR INCREASED EVENT-FREE SURVIVAL (EFS)” (Mirum Pharmaceuticals, Inc., priority 2021, published 2023)
Several values for one entry are separate records, joined by “and”; a condition that tells them apart may be missing. Equal entries are not always repeated.

Columns and labels:
Type in all cases: in vivo, human
[1] = test system: patients with PFIC due to BSEP deficiency; assay: Longitudinal serum bile acid profiling by UHPLC-MS/MS in INDIGO patients
Procedure: Total and individual serum BAs (sBA) including the major sub-species of TCA, TUDCA, TCDCA, TDCA, TLCA, GCA, GUDCA, GCDCA, GDCA, GLCA, CA, UDCA, CDCA, DCA, LCA and 7α-hydroxy-4-cholesten-3-one (sterol-C4), a surrogate marker for BA synthesis, were measured using a validated ultraperformance liquid chromatography coupled with tandem mass spectrometry (UHPLC-MS/MS) assay. The internal standards, a cocktail of deuterium labeled standards were added to serum, calibrators and QC samples. sBA were extracted and separated on a Kinetex C18 (2.6 μm, 100×3.0 mm) column (Phenomenex, Torrance, Calif.) with gradient elution. Quantification of individual sBA was achieved by multiple reaction monitoring (MRM) of selected transitions. Total C24 bile acid concentrations were calculated from the sum of individual species. These assays were applied to the analysis of serum from 19 patients with genetically confirmed PFIC due to BSEP deficiency (open-label phase 2 INDIGO trial; NCT02057718) treated with MRX. Changes in the composition of sBA associated with pruritus improvement measured with the Itch Reported Outcome Observer (ItchRO[Obs]) score were monitored at intervals over 72 weeks, with pruritus responders, defined as >1 scale reduction, compared with nonresponders. Linear mixed model framework was also used to model longitudinal profiles of sBA and pruritus reduction over time.

[2] = test system: patients with ALGS; assay: Phase 2 ICONIC trial, 48-week HRQoL analysis by ItchRO treatment response; parameters: key to Beta, ItchRO treatment response at week 48 Yes vs No, PedsQL Generic Core Scale / Beta, ItchRO treatment response at week 48 Yes vs No, Family Impact Scale / Beta, ItchRO treatment response at week 48 Yes vs No, Multidimensional Fatigue Scale: regression beta in HRQoL score points (0-100 scale), responders vs not
Procedure: A retrospective analysis was performed of 48-week data from the Phase 2 ICONIC trial, a study with a 4-week double-blind, placebo-controlled, randomized drug withdrawal period in patients with ALGS. Patients had moderate to severe pruritus as measured using a validated caregiver-reported Itch Reported Outcome (ItchRO) severity assessment tool (0=none to 4=very severe). Clinically meaningful pruritus response was defined as a ≥1 point reduction in the ItchRO, from baseline to week 48. HRQoL was assessed using the Pediatric Quality of Life Inventory Generic Core (PedsQL; 0-100 scale, 100=best quality of life), Family Impact (FI), and Multidimensional Fatigue (MF) scale scores, and were collected via caregiver. The minimal clinically important difference (MCID) for the HRQoL assessments is 5 points. A subset of individual items from the HRQoL scales were also independently selected for assessment with treatment response. HRQoL scores and selected items were assessed at baseline and week 48 and stratified by treatment response status. P-values were calculated using t-tests or ANOVAs. Multivariate linear regression models were used to assess the relationship between the mean change from baseline in HRQoL score (dependent variable) and an indicator for treatment response (independent variable), adjusting for baseline HRQoL. Adjustment for additional baseline covariates was also explored for the following variables: age, gender, bilirubin, rifampicin use, height z-score, weight z-score, ItchRO, and serum bile acid.

[3] = test system: children with ALGS; assay: ICONIC study, correlation of pruritus intensity (ItchRO) with cholestasis biomarkers and quality of life
From the text: This study evaluates how change in pruritus intensity correlates with change in cholestasis biomarkers in children with ALGS receiving maralixibat (ICONIC study; NCT02160782, described above). The goal of the present study is to characterize correlations between pruritus, as measured by the Itch-Reported Outcome (ItchRO) Observer tool, and multiple parameters, including sBA and sBA subspecies, autotaxin (ATX), and quality of life measures following maralixibat treatment in children with ALGS. Twenty-nine of the 31 enrolled participants completed 48 weeks of treatment, with 27 evaluated for this analysis.

CCCCC1(CCCC)CS(=O)(=O)c2ccc(N(C)C)cc2[C@@H](c2ccc(OCc3ccc(C[N+]45CCN(CC4)CC5)cc3)cc2)[C@H]1O [maralixibat]
reduction from baseline in total sBA, pruritus responders vs nonresponders ([1]; longitudinal data, p<0.05, result in words): significantly greater
patients who met the pruritus-response criteria (>1 scale reduction ItchRO[Obs]) ([1]; of the 19 patients, over 72 weeks): 11 patients
proportion of unconjugated BA ([1]; pruritus nonresponders, p=0.09): 0.61±0.24%
proportion of unconjugated BA ([1]; pruritus responders): 9.84±4.87%
HRQoL at Week 48 (mean ± SD), Family Impact Scale ([2]; ItchRO Non-Responders): 54.7 ± 20.0
HRQoL at Week 48 (mean ± SD), Multidimensional Fatigue Scale ([2]; ItchRO Non-Responders): 64.2 ± 15.1
HRQoL at Week 48 (mean ± SD), PedsQL Generic Core Scale ([2]; ItchRO Non-Responders): 62.4 ± 14.5
HRQoL change from baseline to Week 48 (mean ± SD), Family Impact Scale ([2]; ItchRO Non-Responders): 3.9 ± 7.8
HRQoL change from baseline to Week 48 (mean ± SD), Multidimensional Fatigue Scale ([2]; ItchRO Non-Responders): −3.1 ± 19.8
HRQoL change from baseline to Week 48 (mean ± SD), PedsQL Generic Core Scale ([2]; ItchRO Non-Responders): 1.2 ± 11.1
HRQoL at Week 48 (mean ± SD), Family Impact Scale ([2]; ItchRO Responders): 73.9 ± 19.6
HRQoL at Week 48 (mean ± SD), Multidimensional Fatigue Scale ([2]; ItchRO Responders): 76.2 ± 15.1
HRQoL at Week 48 (mean ± SD), PedsQL Generic Core Scale ([2]; ItchRO Responders): 70.4 ± 15.7
HRQoL change from baseline to Week 48 (mean ± SD), Family Impact Scale ([2]; ItchRO Responders): 17.8 ± 23.4
HRQoL change from baseline to Week 48 (mean ± SD), Multidimensional Fatigue Scale ([2]; ItchRO Responders): 25.8 ±23.0
HRQoL change from baseline to Week 48 (mean ± SD), PedsQL Generic Core Scale ([2]; ItchRO Responders): 11.6 ± 20.3
Beta, ItchRO treatment response at week 48 Yes vs No, Multidimensional Fatigue Scale ([2]; multivariate regression, adjusted for baseline HRQoL, N = 21, CI −2.49, 30.32): 13.92
Beta, ItchRO treatment response at week 48 Yes vs No, Family Impact Scale ([2]; multivariate regression, adjusted for baseline HRQoL, N = 26, CI 1.01, 32.68): 16.85
Beta, ItchRO treatment response at week 48 Yes vs No, PedsQL Generic Core Scale ([2]; multivariate regression, adjusted for baseline HRQoL, N = 27, CI −3.86, 21.38): 8.76
HRQoL change from baseline to week 48 across all scales ([2]; non-responders, result in words): No clinically meaningful change
average increase of Family Impact score, responders compared with non-responders ([2]; over the 48 weeks, controlling for baseline FI score): 17 points and 16.9 points
average increase of Multidimensional Fatigue total score, responders compared with non-responders ([2]; over the 48 weeks, p=0.11): 13.9 points
average increase of PedsQL Generic Core Total Scale Score, responders compared with non-responders ([2]; over the 48 weeks, p=0.19): 8.8 points
Difference in change from baseline to week 48, HRQoL item Difficulty steeping through the night ([2]; responders vs non-responders): 52.9
Difference in change from baseline to week 48, HRQoL item Feeling tired ([2]; responders vs non-responders): 40.1
Difference in change from baseline to week 48, HRQoL item Feeling tired upon waking ([2]; responders vs non-responders): 72.4
Difference in change from baseline to week 48, HRQoL item Steeping a lot ([2]; responders vs non-responders): 55.2
Difference in change from baseline to week 48, HRQoL item Taking a lot of naps ([2]; responders vs non-responders): 40.4
Difference in change from baseline to week 48, HRQoL item Trouble sleeping ([2]; responders vs non-responders): 45.4
pruritus at week 48 of the ICONIC study ([2]; result in words): significant improvements in pruritus
patients who achieved ItchRO treatment response (≥1 point reduction) ([2]; week 48, 27 patients): 74%
overall average ItchRO score reduction ([3]; at week 48): 1.6 points
ItchRO score reduction of the one participant who normalized ([3]; one participant): −3.5 points
pruritus, using ItchRO and CSS scores ([3]; result in words): significant and clinically meaningful improvements in pruritus
Change in ItchRO score (points) ([3]; sBA reduction (%) 50, N 8): −1.90 points
Change in ItchRO score (points) ([3]; sBA reduction (%) 60, N 8): −2.12 points
Change in ItchRO score (points) ([3]; sBA reduction (%) 70, N 6): −2.31 points
Change in ItchRO score (points) ([3]; sBA reduction (%) 80, N 3): −2.79 points
Change in ItchRO score (points) ([3]; sBA reduction (%) 90, N 1): −2.71 points
